Results: patent US20090062355A1, “Pharmaceutical Product” (Takeda Pharmaceutical Company Limited, priority 2006, published 2009)

Columns and labels:
[1] = tested on: mouse macrophage cell line RAW264.7 cells; experiment: Suppressive action on expression caused by gene induction by LPS stimulation (DNA Chip); assay type: cell-based; conditions: 100 nM + LPS 10 ng/mL, 6 hr
Method: A suppressive effect of test compound 1 (compound 72 of • Reference Example B66) on the production of various mediators by lipopolysaccharide (LPS), which is a TLR4 agonist, in mouse macrophage cell line RAW264.7 cells was examined. The day before the experiment, the cells were suspended to 5×10^5 cells/mL in RPMI1640 medium supplemented with 10% inactivated fetal bovine serum, plated on a plate and incubated at 37° C., 5% CO2/95% air overnight. The medium was changed to RPMI1640 medium supplemented with 1% inactivated fetal bovine serum, and test compound 1 (final concentration 100 nM) and LPS (final concentration 10 ng/mL) were added. After culture for 6 hr, RNA was prepared by a conventional method and gene was analyzed using DNA Chip (Mu73A, Affimetrix) and Gene Spring ver. 4. The test substance was dissolved in N,N-dimethylformamide to 10 mM and diluted with a medium.

[2] = tested on: mouse macrophage cell line RAW264.7 cells; experiment: Suppressive action on production of cytokine from LPS stimulated macrophage (BioPlex cytokine assay); assay type: cell-based; conditions: 100 nM + LPS 10 ng/mL, overnight
Method: A suppressive effect of test compound 1 (compound 72 of Reference Example B66) on the production of various cytokines by lipopolysaccharide (LPS), which is a TLR4 agonist, using mouse macrophage cell line RAW264.7 cells was examined. The day before the experiment, the cells were suspended to 1×10^6 cells/mL in RPMI1640 medium supplemented with 10% inactivated fetal bovine serum, plated on a 96 well microplate at 0.1 mL/well and incubated at 37° C., 5% CO2/95% air overnight. The medium was changed, and test compound 1 (final concentration 100 nM) and LPS (final concentration 10 ng/mL) were added. After overnight culture, the content of cytokine in the culture supernatant was quantified by BioPlex cytokine assay (Bio-Rad). Test compound 1 was dissolved in dimethyl sulfoxide (DMSO) to 10 mM, diluted with RPMI1640 medium supplemented with 1% inactivated fetal bovine serum to 0.1 mM, further diluted with the medium to 10-fold concentration of the final concentration and 1/10 thereof was added.

CCOC(=O)C1=CCCC[C@H]1S(=O)(=O)Nc1ccc(F)cc1Cl [test compound 1, ethyl (6R)-6-[(2-chloro-4-fluoroanilino)sulfonyl]-1-cyclohexene-1-carboxylate]
gene variation by LPS stimulation ([1]; all genes analyzed that showed variation by LPS): suppressed almost all the gene variation analyzed | expression of mRNA (fluorescence intensity): MMP-9 ([1]; control 0, LPS 3571.5): 352.6 | expression of mRNA (fluorescence intensity): bcl-3 ([1]; control 0, LPS 7512.6): 158.7 | expression of mRNA (fluorescence intensity): Guanylate binding protein-2 ([1]; control 0, LPS 8931.2): 19.4 | expression of mRNA (fluorescence intensity): RANTES ([1]; control 0, LPS 12030.1): 34.8 | expression of mRNA (fluorescence intensity): IL-1 beta ([1]; control 0, LPS 18712.2): 424.9 | expression of mRNA (fluorescence intensity): Cytokine inducible SH2-containing protein ([1]; control 0, LPS 22669.3): 2092.5 | expression of mRNA (fluorescence intensity): MCP-3 ([1]; control 2.4, LPS 3159.0): 46.5 | expression of mRNA (fluorescence intensity): Adenosine A2b receptor ([1]; control 2.7, LPS 2092.2): 141.9 | expression of mRNA (fluorescence intensity): inducible nitric oxide synthase ([1]; control 9.3, LPS 1251.6): 125.9 | expression of mRNA (fluorescence intensity): COX-2 ([1]; control 24.4, LPS 13981.9): 71.9 | expression of mRNA (fluorescence intensity): CCR1 ([1]; control 26.5, LPS 1877.4): 137.9 | expression of mRNA (fluorescence intensity): IL-6 ([1]; control 26.7, LPS 5345.6): 0 | expression of mRNA (fluorescence intensity): IP-10 ([1]; control 40.1, LPS 12954.7): 30.7 | expression of mRNA (fluorescence intensity): Histidine decarboxylase ([1]; control 44.3, LPS 4472.2): 21.1 | expression of mRNA (fluorescence intensity): IL-4 receptor ([1]; control 84.4, LPS 7015.8): 160.6 | expression of mRNA (fluorescence intensity): MCP-1 ([1]; control 115.6, LPS 24184.7): 336.8 | expression of mRNA (fluorescence intensity): Fas antigen ([1]; control 132.7, LPS 2507.5): 202.7 | expression of mRNA (fluorescence intensity): A20 ([1]; control 143.9, LPS 1044.3): 204.0 | expression of mRNA (fluorescence intensity): IL-1 receptor antagonist ([1]; control 156.9, LPS 21942.3): 538.2 | expression of mRNA (fluorescence intensity): P2X4 ([1]; control 193.0, LPS 1239.3): 227.0 | expression of mRNA (fluorescence intensity): plasminogen activator inhibitor ([1]; control 199.1, LPS 15207.5): 67.5 | expression of mRNA (fluorescence intensity): TNF receptor associated factor ([1]; control 213.6, LPS 2457.3): 311.4 | expression of mRNA (fluorescence intensity): IL-10 ([1]; control 221.8, LPS 6617.9): 128.1 | expression of mRNA (fluorescence intensity): Janus kinase 2 ([1]; control 228.3, LPS 2175.1): 310.9 | expression of mRNA (fluorescence intensity): argininosuccinate synthetase ([1]; control 376.7, LPS 8623.2): 478.9 | expression of mRNA (fluorescence intensity): Major histocompatibility complex ([1]; control 378.5, LPS 3399.6): 353.0 | expression of mRNA (fluorescence intensity): serum amyloid A ([1]; control 393.1, LPS 24253.2): 1041.0 | expression of mRNA (fluorescence intensity): Caspase-11 ([1]; control 436.0, LPS 6975.7): 763.5 | expression of mRNA (fluorescence intensity): Phosphatase PAC1 ([1]; control 653.7, LPS 12520.7): 765.9 | expression of mRNA (fluorescence intensity): G-CSF ([1]; control 698.4, LPS 18440.5): 844.9 | expression of mRNA (fluorescence intensity): IL-18 ([1]; control 708.7, LPS 4881.4): 429.4 | expression of mRNA (fluorescence intensity): MIP-2 ([1]; control 819.2, LPS 12542.9): 3055.0 | expression of mRNA (fluorescence intensity): TNF receptor ([1]; control 906.2, LPS 24864.6): 3467.0 | expression of mRNA (fluorescence intensity): Fc receptor ([1]; control 1244.4, LPS 20683.4): 982.5 | expression of mRNA (fluorescence intensity): Interferon regulatory factor ([1]; control 1491.7, LPS 7554.9): 1356.3 | expression of mRNA (fluorescence intensity): Galectin-9 ([1]; control 1904.3, LPS 19639.3): 3639.2 | expression amount of cytokines: IL1beta ([2]; control 0, LPS 97): 2 pg/mL | expression amount of cytokines: IL12(p40) ([2]; control 3, LPS 18): 4 pg/mL | expression amount of cytokines: IL2 ([2]; control 3, LPS 20): 8 pg/mL | expression amount of cytokines: IL3 ([2]; control 3, LPS 22): 3 pg/mL | expression amount of cytokines: IFNgamma ([2]; control 9, LPS 31): 8 pg/mL | expression amount of cytokines: IL17 ([2]; control 9, LPS 50): 13 pg/mL | expression amount of cytokines: KC ([2]; control 10, LPS 79): 22 pg/mL | expression amount of cytokines: IL12(p70) ([2]; control 12, LPS 48): 13 pg/mL | expression amount of cytokines: IL1alpha ([2]; control 21, LPS 74): 47 pg/mL | expression amount of cytokines: IL10 ([2]; control 25, LPS 80): 20 pg/mL | expression amount of cytokines: RANTES ([2]; control 31, LPS 1520): 48 pg/mL | expression amount of cytokines: TNFalpha ([2]; control 48, LPS 10483): 125 pg/mL | expression amount of cytokines: GM-CSF ([2]; control 53, LPS 135): 85 pg/mL | expression amount of cytokines: IL6 ([2]; control 82, LPS 233): 152 pg/mL
